Legend:
HIV-1 = HIV-1 replication in H9 cells, reverse transcriptase activity of culture supernatants (acute infection); assay type: cell-based, HIV-1 strain HXB2gptX (in human H9 cells); conditions: for relative efficacy on HIV-1 production: 1-100 μM, ranking among the four analogs
Description: (§1) Media was changed every other day. The effect of these compounds on virus production was determined by measuring the reverse transcriptase (RT) activity in samples of the cell culture supernatants. […] Negative controls consisted of no additions or 0.1ethanol. The results of duplicate assays were averaged. Panel B -Concentration-dependent effects of 13-oxamyristic acid on HIV-1 replication as measured by RT activity (percent of untreated control) and the presence of p24 antigen (ng/ml determined by ELISA). Error bars indicate the S.E.M. of assays done in triplicate. Panel C - The effect of 13-oxamyristic acid on syncytia formation using an arbitrary scale described under Materials and Methods, Example 16, below. Panel D - Toxicity of 13-oxamyristic acid determined by viable cell count (trypan blue exclusion), as well as by [^3 H]thymidine and [^3 H]leucine labeling (see under Materials and Methods, Example 16, below). The incorporation of these radiolabeled compounds was determined in the total cell population contained in a well after 10 days of treatment with the analog. Duplicate assays were performed and the results averaged.
Assay for HIV-1 Replication. The human T-lymphoid cell line, H9, was provided by R. D. Gallo (NIH) and maintained in RPMI-1640 medium supplemented with 10% fetal bovine serum, 100 IU/mL penicillin, 100 μg/mL streptomycin an 2 mM L-glutamine. HIV-1 strain HXB2gptX [Fisher et al., Science 233, 655-659 (1986)] was obtained from cultures of chronically infected H9 cells [Popovic et al., Science 224, 497-500 (1984)]< filtered through 0.2 μm Millipore filters and stored at -90° C. The titer of the virus stock was determined by serial dilution using syncytia formation and reverse transcriptase activity (see below) as a measure of infectivity in H9 cells.
Cell-free HIV-1, at a multiplicity of infection (m.o.i.) equal to 0.01-0.001, was added to 10^7 H9 cells which had been pretreated with 2 μg/ml Polybrene® (hexadimethrene bromide, Sigma). Following a 30 min incubation at 37° C. to absorb the virus, 4 × 10^5 of virus treated cells in 1 mL of fresh medium (plus 10% fetal calf serum, pencillin and streptomycin) were added to each well of a 24 well tissue culture plate (Falcon), and mixed with an equal volume of serum-free RPMI-1640 medium containing analog. Medium containing 5% serum, antibiotics ± analog was replaced every other day. Each of the heteroatom substituted analogs was prepared as a 100 mM stock solution in 100% ethanol and stored at -90° C. prior to dilution in the serum-free RPMI-1640 medium. The maximum final ethanol concentration reached after dilution of the different analogs in media was 0.1%. Therefore, uninfected and infected H9 cells, treated with or without 0.1% ethanol, were used as controls for each test. Ethanol alone had no demonstrable effects.
Except for the preliminary screening of the various (coded) analogs which was done twice, all other assays were performed at least three times. Samples were tested in duplicate each time the assay was repeated.
Virus Assays. Virus was quantitated using supernatant solutions of cells harvested on day 8 (m.o.i.=0.01) or day 10 (m.o.i.=0.001) of treatment. Virions were concentrated 10 fold by precipitation of culture supernatants with a solution of polyethylene glycol (30% in 150 mM NaCl, 0.1 mM phenylmethylsulfonylfluoride). The precipitates were solubilized and virus-associated reverse transcriptase (RT) activity measured by [^32 P]TTP incorporation using a poly(rA)-oligo(dT) template [Poiesz et al., Proc. Natl. Acad. Sci. USA 77, 7415-7419 (1980)]. Cell supernatants were also tested for virus-specific antigen using a p24 ELISA from Dupont (Wilmington, DE). This assay can detect as little as 0.03 ng of antigen/mL (antigen=p24, the major structural nucleocapsid protein of HIV-1, as well as its precursor, Pr55^gag).
HIV-1 Replication in H9 Cells is Inhibited by Treatment with Heteroatom-Containing Analogs of Myristate. […]

H9 cells = test: [3H]leucine and [3H]thymidine labeling (protein and DNA synthesis) in HIV-1 infected H9 cells; assay type: cell-based, human; conditions: day 10
Description: as §1, with “Panel C - The effect of 13-oxamyristic acid on syncytia formation using an arbitrary scale described under Materials and Methods, Example 16, below.” left out, “Duplicate assays were performed and the results averaged.” left out
Toxicity Studies. […] Cell survival was determined by trypan-blue exclusion. The number of unstained cells/mL in the treated cultures was divided by the number of unstained cells/mL in the untreated control cultures and expressed as percent control. Protein synthesis was measured at the end of the treatment periods by metabolic labeling for 4 hrs with L-[4,5^3 H(N)]-leucine (2 μCi/mL media, specific activity =140 Ci/mmol). […]

uninfected H9 cells = test: Metabolic labeling tests using uninfected H9 cells; assay type: cell-based, human; conditions: 0.1 to 100 μM
Description: Toxicity Studies. These analyses were conducted for both assay systems. Cell survival was determined by trypan-blue exclusion. The number of unstained cells/mL in the treated cultures was divided by the number of unstained cells/mL in the untreated control cultures and expressed as percent control. Protein synthesis was measured at the end of the treatment periods by metabolic labeling for 4 hrs with L-[4,5^3 H(N)]-leucine (2 μCi/mL media, specific activity =140 Ci/mmol). All cells contained in a given well of a 24 well plate were recovered by scraping, the protein precipitated by TCA (final concentration =10%) and the solution subsequently incubated at 100° C. for 5 min prior to passage over glass fiber filters (Whatman). In the case of the H-9 assay, treated or untreated cells were pulsed labeled at the conclusion of the 10 day incubation. For the MoMLV assay, labeling studies were performed on LZ1 virus producing cells at the conclusion of the 2 day treatment period. An additional control test was performed on NIH 3T3 cells that had never been exposed to virus but which had been incubated with media (± analog) for two days. DNA synthesis was assessed on day 10 of the H9 assay. Cells were labeled for 12 h with [5'-^3 H]thymidine (0.5 μCi/mL, specific activity =2 Ci/mmol). All the cells in a well were harvested by scraping, their nucleic acid precipitated with TCA (final concentration =10%), and then collected on glass fiber filters prior to counting.
The cellular toxicity of 13-oxamyristate was analyzed using three independent assays of cell viability. First, viable cell number was determined at the conclusion of the 10 day treatment period using trypan blue exclusion. The percentage of living cells in untreated, HIV-1 infected cultures was reduced by 50% compared to that of untreated, uninfected cells (FIG. 1D). This reflects the cytopathic effects encountered with this strain of HIV-1 [Ratner et al., Nature 313, 277-284 (1985)]. […] To further investigate this hypothesis, the effects of increasing concentrations of the analog on DNA and protein synthesis were determined.

[1] = Human immunodeficiency virus 1, H9, 240 h, read-out: reverse transcriptase (RT) activity

## COCCCCCCCCCCCC(=O)O [13-oxamyristate, 12-(Methoxy)dodecanoic acid]
HIV-1; 0.1 μM to 100 μM, H9 cells
  dose dependence of reduction in reverse transcriptase activity: dose dependent reduction in reverse transcriptase activity
HIV-1; 1-10 μM, 10 day incubation, HIV-1 infected H9 cells
  effect on reverse transcriptase activity: More pronounced effects
HIV-1; H9 cells
  relative efficacy on HIV-1 production: greatest effects
HIV-1; H9 cells, listed as 13-oxamyristic acid
  relative efficacy on HIV-1 production: most effective
HIV-1; 20-40 μM range, H9 cells
  reduction in virus replication (reverse transcriptase): greater than 90%
HIV-1; [1]
  activity at 10 µM: 20%
  activity at 100 µM: < 10%
H9 cells
  [3H]leucine labeling: correlated with the cell survival data
  [3H]thymidine labeling: correlated with the cell survival data
Uninfected H9 cells
  DNA synthetic rates: no significant effects
  growth rates: no significant effects
  protein synthetic rates: no significant effects
